Assay results as given in ChEMBL document CHEMBL1134311, “Nonsteroidal selective glucocorticoid modulators: the effect of C-5 alkyl substitution on the transcriptional activation/repression profile of 2,5-dihydro-10-methoxy-2,2,4-trimethyl-1H-[1]benzopyrano[3,4-f]quinolines” (J Med Chem, 2001).

Columns and labels:
[1] = target: T1, Glucocorticoid receptor (Homo sapiens, UniProt P04150); test: The effective concentration in CV-1 cells for glucocorticoid response element activation (GRE).; type: functional, cell-based
T1 sequence (P04150 whole entry): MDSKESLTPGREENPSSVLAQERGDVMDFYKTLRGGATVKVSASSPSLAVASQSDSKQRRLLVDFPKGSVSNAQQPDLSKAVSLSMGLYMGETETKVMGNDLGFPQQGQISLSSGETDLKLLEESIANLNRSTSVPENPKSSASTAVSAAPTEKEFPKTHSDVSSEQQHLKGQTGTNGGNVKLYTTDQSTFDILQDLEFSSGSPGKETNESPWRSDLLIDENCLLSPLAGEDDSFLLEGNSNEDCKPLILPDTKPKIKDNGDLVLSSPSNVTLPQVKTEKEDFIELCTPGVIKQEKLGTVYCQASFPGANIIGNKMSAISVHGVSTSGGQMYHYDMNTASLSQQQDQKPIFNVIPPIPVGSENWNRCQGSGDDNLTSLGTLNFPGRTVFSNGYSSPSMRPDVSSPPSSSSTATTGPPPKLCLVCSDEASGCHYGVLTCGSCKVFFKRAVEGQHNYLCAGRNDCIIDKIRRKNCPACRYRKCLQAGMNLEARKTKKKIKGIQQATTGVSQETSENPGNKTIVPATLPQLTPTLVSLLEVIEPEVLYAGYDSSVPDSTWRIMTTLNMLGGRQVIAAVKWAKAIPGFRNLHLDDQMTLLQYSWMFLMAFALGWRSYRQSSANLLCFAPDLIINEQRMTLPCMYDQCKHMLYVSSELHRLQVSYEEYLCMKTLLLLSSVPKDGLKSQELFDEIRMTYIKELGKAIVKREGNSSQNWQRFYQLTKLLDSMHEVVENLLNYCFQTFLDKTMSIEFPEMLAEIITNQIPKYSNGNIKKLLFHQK

[2] = target: T1, Glucocorticoid receptor; test: Binding affinity towards glucocorticoid receptor (GR) by displacing [3H]dexamethasone
[3] = target: T1, Glucocorticoid receptor; test: Effective concentration in HepG2 cells transfected with LUC gene (E-sel-Luc).; type: functional, cell-based
[4] = target: T2, Progesterone receptor (Homo sapiens, UniProt P06401); test: Binding affinity towards progesterone receptor (PR) by displacing [3H]progesterone.
T2 sequence (P06401 whole entry): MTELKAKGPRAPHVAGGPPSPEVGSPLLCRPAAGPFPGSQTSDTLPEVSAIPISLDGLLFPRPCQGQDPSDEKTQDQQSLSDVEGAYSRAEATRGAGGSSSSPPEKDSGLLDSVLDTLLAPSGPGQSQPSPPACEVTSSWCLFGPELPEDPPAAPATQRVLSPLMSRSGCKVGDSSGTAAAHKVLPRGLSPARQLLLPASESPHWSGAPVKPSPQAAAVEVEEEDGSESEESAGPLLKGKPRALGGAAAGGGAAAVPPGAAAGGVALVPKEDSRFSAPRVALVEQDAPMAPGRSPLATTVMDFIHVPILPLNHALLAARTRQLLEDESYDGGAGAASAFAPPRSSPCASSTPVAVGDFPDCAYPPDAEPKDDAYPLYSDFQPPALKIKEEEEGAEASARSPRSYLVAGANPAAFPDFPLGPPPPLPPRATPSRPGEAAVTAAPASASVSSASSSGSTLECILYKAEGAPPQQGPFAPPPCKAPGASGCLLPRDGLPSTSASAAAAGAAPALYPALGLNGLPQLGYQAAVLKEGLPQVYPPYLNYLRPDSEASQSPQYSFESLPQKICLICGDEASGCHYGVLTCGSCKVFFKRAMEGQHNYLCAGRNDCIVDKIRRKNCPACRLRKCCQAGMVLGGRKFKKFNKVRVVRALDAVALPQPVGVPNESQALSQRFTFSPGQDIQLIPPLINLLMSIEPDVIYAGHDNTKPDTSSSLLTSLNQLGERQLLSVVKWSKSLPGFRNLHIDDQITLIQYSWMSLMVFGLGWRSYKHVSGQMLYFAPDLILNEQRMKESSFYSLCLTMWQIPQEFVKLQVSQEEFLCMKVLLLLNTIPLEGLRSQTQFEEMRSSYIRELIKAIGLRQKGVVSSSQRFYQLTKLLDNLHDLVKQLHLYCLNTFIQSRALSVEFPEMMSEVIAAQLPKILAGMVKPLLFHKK

Row | EC50 [1] [nM] | Ki [2] [nM] | EC50 [3] [nM] | Ki [4] [nM] | SMILES
1 | 400 | 9 | 144 | 2100 | C/C=C/C1Oc2cccc(OC)c2-c2ccc3c(c21)C(C)=CC(C)(C)N3 (centres undefined)
2 | 223 | 9.5 | 69 | > 5000 | COc1cccc2c1-c1ccc3c(c1C(CC(C)C)O2)C(C)=CC(C)(C)N3 (centres undefined)
3 | 34 |  | 27 | 760 | C#CCC1Oc2cccc(OC)c2-c2ccc3c(c21)C(C)=CC(C)(C)N3 (centres undefined)
4 | 460 |  | 168 |  | C/C=C\C1Oc2cccc(OC)c2-c2ccc3c(c21)C(C)=CC(C)(C)N3 (centres undefined)
5 | > 5000 | > 5000 | > 5000 | > 5000 | COc1cccc2c1-c1ccc3c(c1C(CC(=O)O)O2)C(C)=CC(C)(C)N3 (centres undefined)
6 | > 5000 | 3200 | > 5000 | > 5000 | CNC(=O)CC1Oc2cccc(OC)c2-c2ccc3c(c21)C(C)=CC(C)(C)N3 (centres undefined)
7 |  |  |  | > 5000 | COc1cccc2c1-c1ccc3c(c1C(CCO)O2)C(C)=CC(C)(C)N3 (centres undefined)
8 | > 5000 |  | > 5000 | > 5000 | COc1cccc2c1-c1ccc3c(c1CO2)C(C)=CC(C)(C)N3
9 | 146 |  | 39 | > 5000 | COc1cccc2c1-c1ccc3c(c1C(C(C)C)O2)C(C)=CC(C)(C)N3 (centres undefined)
10 | 264 |  | 90 | > 5000 | CCC1Oc2cccc(OC)c2-c2ccc3c(c21)C(C)=CC(C)(C)N3 (centres undefined)
11 | > 5000 |  | > 5000 | > 5000 | COc1cccc2c1-c1ccc3c(c1C(CC(=O)N(C)C)O2)C(C)=CC(C)(C)N3 (centres undefined)
12 |  |  |  | > 5000 | COc1cccc2c1-c1ccc3c(c1C(CCN(C)C)O2)C(C)=CC(C)(C)N3 (centres undefined)
13 |  |  |  | > 5000 | COc1cccc2c1-c1ccc3c(c1C(C1CCCCC1)O2)C(C)=CC(C)(C)N3 (centres undefined)
14 | 78 | 8.1 | 22 | > 5000 | C=CCCC1Oc2cccc(OC)c2-c2ccc3c(c21)C(C)=CC(C)(C)N3 (centres undefined)
15 | 75 | 5 | 70 | > 5000 | CCCC1Oc2cccc(OC)c2-c2ccc3c(c21)C(C)=CC(C)(C)N3 (centres undefined)
16 |  |  |  | > 5000 | COc1cccc2c1-c1ccc3c(c1C(C1CCCC1)O2)C(C)=CC(C)(C)N3 (centres undefined)
17 | > 5000 | > 5000 | > 5000 | > 5000 | COc1cccc2c1-c1ccc3c(c1C(C(N)=O)O2)C(C)=CC(C)(C)N3 (centres undefined)
18 |  |  |  | > 5000 | COc1cccc2c1-c1ccc3c(c1C(Cc1ccccc1)O2)C(C)=CC(C)(C)N3 (centres undefined)
19 | 9 |  | 4 | > 5000 | COc1cccc2c1-c1ccc3c(c1C(c1cccc(OCSC)c1)O2)C(C)=CC(C)(C)N3 (centres undefined)
20 | 33 | 2.5 | 13 | 1800 | C=CCC1Oc2cccc(OC)c2-c2ccc3c(c21)C(C)=CC(C)(C)N3 (racemic) [AL-43]
21 | 14 |  | 6.9 | 1300 | C=CCC1Oc2cccc(OC)c2-c2ccc3c(c21)C(C)=CC(C)(C)N3 (single isomer, unassigned; (-)) [AL-43]
22 | 520 | 150 | 450 | > 5000 | C=CCC1Oc2cccc(OC)c2-c2ccc3c(c21)C(C)=CC(C)(C)N3 (stereo in doubt; 37) [AL-43]
